Results published in patent publication EP0643069B1, “2'-DEOXY-2'-FLUOROCOFORMYCIN AND STEREOISOMERS THEREOF” (priority 1991, dated 1993).
In brackets after ≈: the same amount, converted by molar mass. Like-named read-outs stand apart in the source and are kept apart here.

How the values were obtained:
[1] = tested on: Providencia sp. 2991; test: Minimum growth-inhibitory concentration, standard serial dilution assay; type: cell-based
Protocol: (§1) That is, a test was conducted to measure the minimum growth-inhibitory concentrations (MIC, mcg/ml) of these compounds against some microorganisms using a standard serial dilution assay method.

[2] = tested on: Providencia rettgeri GN466; test: as above; type: cell-based
Protocol: as §1

[3] = tested on: mice; test: Acute toxicity in mice, intraperitoneal administration; type: in vivo; details: 100 mg/kg
[4] = Stability in aqueous hydrochloric acid solution (pH 2), followed by thin-layer silica gel chromatography; type: physicochemical; details: water acidified with hydrochloric acid, pH 2, 25°C
Protocol: The test was carried out in accordance with the following method.
An aqueous solution (pH 2) of the test compound dissolved in water as acidified with hydrochloric acid was kept at 25°C, from which samples were taken out with time for analizing by thin-layer silica gel chromatography using acetonitrile-0.2 M aqueous ammonium chloride (3:1) as the development solvent. The spot of the test compound on the silica gel thin-layer was detected by using UV method, staining tests with conc. sulfuric acid and coloring tests with aqueous ammonium molybdate sulfuric acid solution, in combination, whereby the time (in hour) required for the test compound to disappear completely in the aqueous hydrochloric acid solution was determined. By way of comparison, coformycin and pentostatin were also tested by the same method.

[5] = target: T1, adenosine deaminase (Bos taurus, UniProt P56658); test: Enzyme-inhibitory activity against adenosine deaminase (optical density at 265 nm); type: biochemical
T1 construct: purchased Sigma Chemical Type VI
T1 sequence (P56658 1-363): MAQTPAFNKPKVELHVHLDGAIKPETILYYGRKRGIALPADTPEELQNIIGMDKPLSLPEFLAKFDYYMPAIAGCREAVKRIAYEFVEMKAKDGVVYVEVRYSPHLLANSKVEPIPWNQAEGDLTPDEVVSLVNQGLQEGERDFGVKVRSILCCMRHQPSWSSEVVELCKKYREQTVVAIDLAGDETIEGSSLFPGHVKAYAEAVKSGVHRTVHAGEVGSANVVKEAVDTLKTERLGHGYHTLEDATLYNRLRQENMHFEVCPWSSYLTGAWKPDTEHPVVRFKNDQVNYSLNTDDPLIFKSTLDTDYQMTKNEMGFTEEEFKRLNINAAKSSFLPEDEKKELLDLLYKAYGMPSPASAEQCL
Protocol: The test of evaluating the inhibitory activity of each of the compounds against adenosine deaminase was carried out as given below.
Optical density of the reaction mixture obtained was measured with time (measured at the wave length of 265 nm), and the IC50 value of the tested compound against adenosine deaminase was calculated on the basis of decreases in the measured values of the optical density.

[6] = tested on: Escherichia coli; test: Antibacterial activity of formycin A against Escherichia coli on bouillon-agar medium, with and without test compound; type: cell-based; details: for growth of Escherichia coli where test compound had permeated medium containing formycin A: test compound 1 mcg/ml, formycin A 100 mcg/ml in bouillon-agar medium, about 37°C
Protocol: In this test, an aqueous solution of each of the compounds to be tested, i.e. FCF, e-FCF, Ara-FCF or Ara-e-FCF, at a concentration of 1 mcg/ml, was added in the form of several drops on the surface of a bouillon-agar medium containing formycin A at a concentration of 100 mcg/ml to form a circular film of the said aqueous solution thereon. Then, the medium was allowed to stand to make the test compound permeate into the bouillon-agar layer. Subsequently, a strain of Escherichia coli was inoculated on the overall surface of said medium and the inoculated medium was incubated at about 37°C.

[7] = tested on: mice; details: intravenous administration, cited from earlier work
[8] = phosphate buffer 0.05 M, pH 7.4, 25°C, 5 minutes pre-incubation, substrate adenosine, read-out: Enzyme-inhibitory activity, IC50

| SMILES | Time (hours) required for complete disappearance of test compound in aqueous solution at pH 2 at 25°C [4] | IC50 [5, 8] | growth of Escherichia coli where test compound had permeated medium containing formycin A [6] | other results |
| --- | --- | --- | --- | --- |
| NC1O[C@H](CO)[C@@H](O)[C@@H]1F (stereo partly drawn) [2-deoxy-2-fluoro-α,β-D-arabinofuranosyl amine] |  |  |  | MIC [1]: 100 µg/mL (≈ 662 µM); MIC [2]: 50 µg/mL (≈ 331 µM) |
| NC1O[C@H](CO)[C@@H](O)[C@H]1F (stereo partly drawn) [2-deoxy-2-fluoro-α,β-D-ribofuranosyl amine] |  |  |  | MIC [1]: 100 µg/mL (≈ 662 µM); MIC [2]: 50 µg/mL (≈ 331 µM) |
| OC[C@H]1O[C@@H](n2cnc3c2N=CNC[C@H]3O)[C@@H](F)[C@@H]1O [Ara-FCF, (8R)-3-(2-deoxy-2-fluoro-β-D-arabinofuranosyl)-3,6,7,8-tetrahydroimidazo [4,5-d][1,3]diazepin-8-ol] | 15 hours | 0.77 nM | the bacteria could not grow to form the circular inhibition zone | acute toxicity (death of mice) [3]: no death of the mice |
| OC[C@H]1O[C@@H](n2cnc3c2N=CNC[C@@H]3O)[C@@H](F)[C@@H]1O [Ara-e-FCF, (8S)-3-(2-deoxy-2-fluoro-β-D-arabinofuranosyl)-3,6,7,8-tetrahydroimidazo[4,5-d][1,3]diazepin-8-ol] |  | 2200 nM | the bacteria could not grow to form the circular inhibition zone |  |
| OC[C@H]1O[C@@H](n2cnc3c2N=CNC[C@H]3O)[C@H](O)[C@@H]1O [Coformycin, (8R)-3-(β-D-ribofuranosyl)-3,6,7,8-tetrahydroimidazo[4,5-d][1,3]diazepin-8-ol] | 10 hours |  |  | IC50 [5]: 1.7 nM; acute toxicity (death of mice) ([7]; 12.5 mg/kg): cause the death of mice |
| OC[C@H]1O[C@@H](n2cnc3c2N=CNC[C@H]3O)[C@H](F)[C@@H]1O [FCF, (8R)-3-(2-deoxy-2-fluoro-β-D-ribofuranosyl)-3,6,7,8-tetrahydroimidazo [4,5-d][1,3]diazepin-8-ol] | 15 hours | 17 nM | the bacteria could not grow to form the circular inhibition zone |  |
| OC[C@H]1O[C@@H](n2cnc3c2NC=NC[C@H]3O)C[C@@H]1O [Pentostatin, 2'-deoxycoformycin, reference compound] | 1 hours |  |  | acute toxicity (body weight of tested mice) ([7]; 25 mg/kg): cause the decrease in the body weight of tested mice |
| OC[C@H]1O[C@@H](n2cnc3c2N=CNC[C@@H]3O)[C@H](F)[C@@H]1O [e-FCF, (8S)-3-(2-deoxy-2-fluoro-β-D-ribofuranosyl)-3,6,7,8-tetrahydroimidazo [4,5-d][1,3]diazepin-8-ol] |  | 100 nM | the bacteria could not grow to form the circular inhibition zone |  |
| Nc1ncnc2c([C@@H]3O[C@H](CO)[C@@H](O)[C@H]3O)n[nH]c12 [formycin A] |  |  |  | antibacterial activity against Escherichia coli ([6]; formycin A alone at 100 mcg/ml): no antibacterial activity |
